Measurements published in ChEMBL document CHEMBL1255267, “Reduced Susceptibility of Proteus mirabilis to triclosan” (2008).
Converted amounts (≈) assume the structure as drawn.

Key:
Type in all cases: functional
[1] = system: Proteus mirabilis; test: Antibacterial activity against Proteus mirabilis NP43 after 18 hrs by Etest method
[2] = system: Proteus mirabilis; test: Antibacterial activity against Proteus mirabilis M 12 mutant after 18 hrs by Etest method
[3] = system: Proteus mirabilis; test: Antibacterial activity against Proteus mirabilis NP37 after 18 hrs by Etest method
[4] = system: Proteus mirabilis; test: Antibacterial activity against Proteus mirabilis M 31 mutant after 18 hrs by Etest method
[5] = system: Proteus mirabilis; test: Antibacterial activity against Proteus mirabilis M 17 mutant after 18 hrs by Etest method
[6] = system: Proteus mirabilis; test: Antibacterial activity against Proteus mirabilis M 55 mutant after 18 hrs by Etest method
[7] = system: Escherichia coli; test: Antibacterial activity against Escherichia coli 10418 after 18 hrs by Etest method
[8] = system: Proteus mirabilis; test: Antibacterial activity against Proteus mirabilis M 26 mutant after 18 hrs by Etest method
[9] = system: Proteus mirabilis; test: Antibacterial activity against Proteus mirabilis M 42 mutant after 18 hrs by Etest method
[10] = system: Proteus mirabilis; test: Antibacterial activity against Proteus mirabilis M 19 mutant after 18 hrs by Etest method
[11] = system: Proteus mirabilis; test: Antibacterial activity against Proteus mirabilis B2 after 18 hrs by Etest method
[12] = system: Proteus mirabilis; test: Antibacterial activity against Proteus mirabilis NP55 after 18 hrs by Etest method
[13] = system: Proteus mirabilis; test: Antibacterial activity against Proteus mirabilis M 29 mutant after 18 hrs by Etest method
[14] = system: Proteus mirabilis; test: Antibacterial activity against Proteus mirabilis M 44 mutant after 18 hrs by Etest method
[15] = system: Proteus mirabilis; test: Antibacterial activity against Proteus mirabilis M 23 mutant after 18 hrs by Etest method
[16] = system: Proteus mirabilis; test: Antibacterial activity against Proteus mirabilis M 35 mutant after 18 hrs by Etest method
[17] = system: Proteus mirabilis; test: Antibacterial activity against Proteus mirabilis M 21 mutant after 18 hrs by Etest method
[18] = system: Proteus mirabilis; test: Antibacterial activity against Proteus mirabilis M 40 mutant after 18 hrs by Etest method
[19] = system: Proteus mirabilis; test: Antibacterial activity against Proteus mirabilis NP14 after 18 hrs by Etest method
[20] = system: Proteus mirabilis; test: Antibacterial activity against Proteus mirabilis M 48 mutant after 18 hrs by Etest method

Compound | MIC ([1]; NP43, 18 h) [µg/mL] | MIC ([2]; M 12, 18 h) [µg/mL] | MIC ([3]; NP37, 18 h) [µg/mL] | MIC ([4]; M 31, 18 h) [µg/mL] | MIC ([5]; M 17, 18 h) [µg/mL] | MIC ([6]; M 55, 18 h) [µg/mL] | MIC ([7]; Escherichia coli, 10418, 18 h) [µg/mL] | MIC ([8]; M 26, 18 h) [µg/mL] | MIC ([9]; M 42, 18 h) [µg/mL] | MIC ([10]; M 19, 18 h) [µg/mL] | MIC ([11]; B2, 18 h) [µg/mL] | MIC ([12]; NP55, 18 h) [µg/mL] | MIC ([13]; M 29, 18 h) [µg/mL] | MIC ([14]; M 44, 18 h) [µg/mL] | MIC ([15]; M 23, 18 h) [µg/mL] | MIC ([16]; M 35, 18 h) [µg/mL] | MIC ([17]; M 21, 18 h) [µg/mL] | MIC ([18]; M 40, 18 h) [µg/mL] | MIC ([19]; NP14, 18 h) [µg/mL] | MIC ([20]; M 48, 18 h) [µg/mL] | also measured
GENTAMICIN |  |  |  |  |  |  |  |  |  |  |  |  |  |  |  |  |  |  |  |  | MIC [1]: 0.1 µg/mL; MIC [2]: 0.06 µg/mL; MIC [3]: 0.38 µg/mL; MIC [4]: 0.13 µg/mL; MIC [5]: 0.06 µg/mL; MIC [6]: 0.38 µg/mL; MIC [7]: 0.09 µg/mL; MIC [8]: 0.13 µg/mL; MIC [9]: 0.25 µg/mL; MIC [10]: 0.13 µg/mL; MIC [11]: 0.38 µg/mL; MIC [12]: 0.1 µg/mL; MIC [13]: 0.19 µg/mL; MIC [14]: 0.38 µg/mL; MIC [15]: 0.09 µg/mL; MIC [16]: 0.25 µg/mL; MIC [17]: 0.13 µg/mL; MIC [18]: 0.13 µg/mL; MIC [19]: 0.13 µg/mL; MIC [20]: 0.25 µg/mL
O=C1CN(/N=C/c2ccc([N+](=O)[O-])o2)C(=O)N1 [NITROFURANTOIN] | 48 (≈ 202 µM) | 12 (≈ 50.4 µM) | 24 (≈ 101 µM) | 24 (≈ 101 µM) | 12 (≈ 50.4 µM) | 48 (≈ 202 µM) | 2 (≈ 8.4 µM) | 24 (≈ 101 µM) | 48 (≈ 202 µM) | 32 (≈ 134 µM) | 64 (≈ 269 µM) | 64 (≈ 269 µM) | 16 (≈ 67.2 µM) | 32 (≈ 134 µM) | 32 (≈ 134 µM) | 32 (≈ 134 µM) | 48 (≈ 202 µM) | 64 (≈ 269 µM) | 32 (≈ 134 µM) | 24 (≈ 101 µM) | 
COc1cc(Cc2cnc(N)nc2N)cc(OC)c1OC [TRIMETHOPRIM] | 0.4 (≈ 1.38 µM) | 0.19 (≈ 0.654 µM) | > 32 | > 32 | 0.25 (≈ 0.861 µM) | > 32 | 0.03 (≈ 0.103 µM) | > 32 | > 32 | > 32 | > 32 | > 32 | > 32 | > 32 | > 32 | > 32 | > 32 | > 32 | > 32 | > 32 | 
CC1(C)S[C@@H]2[C@H](NC(=O)[C@H](N)c3ccccc3)C(=O)N2[C@H]1C(=O)O [AMPICILLIN] | 0.4 (≈ 1.14 µM) | 0.13 (≈ 0.372 µM) | > 256 | > 256 | 0.19 (≈ 0.544 µM) | > 256 | 0.5 (≈ 1.43 µM) | > 256 | > 256 | 12 (≈ 34.3 µM) | > 256 | > 256 | > 256 | > 256 | 12 (≈ 34.3 µM) | > 256 | 16 (≈ 45.8 µM) | > 256 | 16 (≈ 45.8 µM) | > 256 | 
